3 compounds from article PMC10218941, “Design, Synthesis, Antiproliferative Actions, and DFT Studies of New Bis–Pyrazoline Derivatives as Dual EGFR/BRAF^V600E Inhibitors” (International Journal of Molecular Sciences, 2023) can be followed below.

A short description of data set [1]: Cell viability assay (MTT) on normal mammary epithelial cells. The data set is classed as cell-based. The note with it: human, MCF-10A normal mammary gland epithelial cells, MCF-10A cells, four days. On the procedure: To test the viability of new substances, the epithelial (MCF-10A) cell line of the normal human mammary gland was used. Compounds 8–17 were incubated for four days on MCF-10A cells before being tested for viability using the MTT assay. According to Table 1, none of the substances tested were cytotoxic, and cell viability at 50 µM was greater than 87% for the compounds tested.
The normal human mammary gland epithelial (MCF-10A) cell line was used to test the viability of new compounds [46, 47]. See Appendix SA (Supplementary File).
4.2. Biological evaluation
4.2.1. Cytotoxic activity using MTT Assay and evaluation of IC50
MTT assay was performed to investigate the effect of the synthesized compounds on mammary epithelial cells (MCF-10A). The cells were propagated in medium consisting of Ham's F-12 medium/ Dulbecco's modified Eagle's medium (DMEM) (1:1) supplemented with 10% foetal calf serum, 2 mM glutamine, insulin (10 μg/mL), hydrocortisone (500 ng/mL) and epidermal growth factor (20 ng/mL). Trypsin ethylenediamine tetra acetic acid (EDTA) was used to passage the cells after every 2-3 days. 96-well flat-bottomed cell culture plates were used to seed the cells at a […]
of 10^4 cells mL-1. The medium was aspirated from all the wells of culture plates after 24 h followed by the addition of synthesized compounds (in 200 μL medium to yield a final concentration of 0.1% (v/v) dimethyl sulfoxide) into individual wells of the plates. Four wells were designated to a single compound. The plates were allowed to incubate at 37°C for 96 h. Afterwards, the medium was aspirated and 3 -[4,5-dimethylthiazol-2-yl]-2,5-diphenyltetrazolium bromide (MTT) (0.4 mg/mL) in medium was added to each well and subsequent ly incubated for 3 h. The medium was aspirated and 150 μL dimethyl sulfoxide (DMSO) was added to each well. The plates were vortexed followed by the measurement of absorbance at 540 nm on a microplate reader. […]

Data set [2] relates to Panc-1 (pancreatic cancer cell line). Description: Antiproliferative assay (MTT), Panc-1. It is filed as cell-based. The note with it: Homo sapiens, read-out: Antiproliferative Activity IC50 ± SEM (µM) Panc-1. On the procedure:
The antiproliferative activity of pyrazoline hybrids 8–17 was tested against the four human cancer cell lines Panc-1 (pancreatic cancer cell line), MCF-7 (breast cancer cell line), HT-29 (colon cancer cell line), and A-549 (lung cancer cell line) using the MTT assay and doxorubicin as the reference drug. See Appendix SA (Supplementary File). […]
4.2.1.2. Assay for antiproliferative effect
To explore the antiproliferative potential of compounds propidium iodide fluorescence assay was performed using different cell lines such as Panc -1 (pancreas cancer cell line), MCF-7 (breast cancer cell line), HT-29 (colon cancer cell line) and A-549 (epithelial cancer cell line), respectively. To calculate the total nuclear DNA, a fluorescent dye (propidium iodide, PI) is used which can attach to the DNA, thus offering a quick and precise technique. PI cannot pass through the cell membrane and its signal intensity can be considered as directly proportional to quantity of cellular DNA. Cells whose cell membranes are damaged or have changed permeability are counted as dead ones. The assay was performed by seeding the cells of different cell lines at a density of 3000-7500 cells/well (in200μl medium) in culture plates followed by incubation for 24h at 37 °C in humidified 5%CO2/95% air atmospheric conditions. The medium was removed; the compounds were added to the plates at 10 μM concentrations (in 0.1% DMSO) in triplicates, followed by incubation for 48h. DMSO (0.1%) was used as control. After incubation, medium was removed followed by the addition of PI (25 μl, 50μg/mL in water/medium) to each well of the plates. At - 80 °C, the plates were allowed to freeze for 24 h, followed by thawing at 25 °C. A fluorometer (Polar-Star BMG Tech) was used to record the readings at excitation and emission wavelengths of 530 and 620 nm for each well. The percentage cytotoxicity of compounds was calculated using […]
Where ATC= Absorbance of treated cells and AC= Absorbance of control. Erlotinib was used as positive control in the assay. […]

For data set [3], the system named is four human cancer cell lines (A-549, MCF-7, Panc-1, HT-29). Nature of the data set: Antiproliferative assay, mean of four cancer cell lines (GI50). The data set is classed as cell-based. The note with it: mean over A-549, MCF-7, Panc-1, HT-29.
The next data set concerns caspase-3. Description: Caspase 3 activation assay. The note with it: MCF-7 cells; for Caspase–3 Fold Change: versus untreated control. It is filed as cell-based, human. From the text:
Compounds 12 and 17 were studied for their effects on caspase-3 levels in MCF-7 (breast cancer cell line) and staurosporine as a reference (503.00 ± 4 pg/mL). […] The aforementioned results imply that caspase-3 overexpression may be a contributing factor in the antiproliferative effects of the investigated compounds. […]
4.2.3. Caspase-3 activation assay
Allow all reagents to reach room temperature before use. Gently mix all liquid reagents prior to use. Determine the number of 8-well strips needed for the assay. Insert these in the frame(s) for current use. Add 100 μl of the Standard Diluent Buffer to the zero standard wells. Well(s) reserved for chromogen blank should be left empty. Add 100 μl of standards and controls or diluted samples to the appropriate microtiter wells. The sample dilution chosen should be optimized for each experimental system. Tap gently on side of plate to mix. Cover wells with plate cover and incubate for 2 hours at room temperature. Thoroughly aspirate or decant solution from wells and discard the liquid, Wash wells 4 times. Pipette 100 μl of Caspase-3 (Active) Detection Antibody solution into each well except the chromogen blank(s). Tap gently on the side of the plate to mix. Cover plate with plate cover and incubate for 1 hour at room temperature. Thoroughly aspirate or decant solution from wells and discard the liquid, Wash wells 4 times. Add 100 μl Anti-Rabbit IgG HRP Working Solution to each well except the chromogen blank(s). Prepare the working dilution as described in Preparing IgG HRP. Cover wells with the plate cover and incubate for 30 minutes at room temperature. Thoroughly aspirate or decant solution from wells and discard the liquid. Wash wells 4 times. Add 100 μl of Stabilized Chromogen to each well. The liquid in the wells will begin to turn blue. Incubate for 30 minutes at room temperature and in the dark. The incubation time for chromogen substrate is often determined by the microtiter plate reader used. Many plate readers have the capacity to record a maximum optical density (O.D.) of 2.0. The O.D. values should be monitored, and the substrate reaction stopped before the O.D. of the positive wells exceeds the limits of the instrument. The O.D. values at 450 nm can only be read after the Stop Solution has been added to each well. If using a reader that records only to 2.0 O.D., stopping the assay after […]
Add 100 μl of Stop Solution to each well. Tap side of plate gently to mix. The solution in the wells should change from blue to yellow. Read the absorbance of each well at 450 nm having blanked the plate reader against a chromogen blank composed of 100 μl each of Stabilized Chromogen and Stop Solution. Read the plate within 2 hours after adding the Stop Solution. Use a curve fitting software to generate the standard curve. A four-parameter algorithm provides the best standard curve fit. Read the concentrations for unknown samples and controls from the standard curve. Multiply value(s) obtained for sample(s) by the appropriate dilution factor to correct for the dilution in step 3. Samples producing signals greater than that of the highest standard should be diluted in Standard Diluent Buffer and reanalyzed. […]

By viability is commonly meant a per cent measure of how many cells are alive, often set against a control. The low end stands for more harm to the cells, the high end for less harm to the cells. By IC50 is commonly meant the concentration that inhibits the measured activity by half.

Several values for one entry are separate records, joined by “and”; a condition that tells them apart may be missing. Equal values may be shown once.

As for `COc1ccc(C2CC(c3ccc(OCC(=O)Nc4ccc(C5=NNC(c6ccc(OC)c(OC)c6)C5)cc4)cc3)=NN2)cc1` (stereo not drawn) [Compound 12, 2-(4-(5-(4-Methoxyphenyl)-4,5-dihydro-1H-pyrazol-3-yl)phenoxy)-N-(4-(5-(3,4-dimethoxyphenyl)-4,5-dihydro-1H-pyrazol-3-yl)phenyl)acetamide], in data set [1], the viability at 96 h, 50 µM is 90%. In addition, in data set [2], the IC50 worked out at 1.1 ± 0.1 µM. This compound also came in with an IC50 in data set [3] of 1.05 µM. For the same compound, in the data set on caspase-3, the “Caspase–3 Conc” value came out at 543.50 ± 4 pg/mL and the “Caspase–3 Fold Change” value was 8.5.
For `COc1ccc(C2CC(c3ccc(NC(=O)COc4ccc(C5=NNC(c6ccc(OC)c(OC)c6)C5)cc4)cc3)=NN2)cc1` (stereo not drawn) [Compound 17, 2-(4-(5-(3,4-Dimethoxyphenyl)-4,5-dihydro-1H-pyrazol-3-yl)phenoxy)-N-(4-(5-(4-methoxyphenyl)-4,5-dihydro-1H-pyrazol-3-yl)phenyl)acetamide], the viability at 96 h, 50 µM in data set [1] was found to be 91%. Besides, the IC50 in data set [2] amounted to 1.3 ± 0.1 µM. This compound gave an IC50 in data set [3] of 1.2 µM. In addition, in the data set with caspase-3, the “Caspase–3 Conc” value is 469.50 ± 5 pg/mL and 469.50 ± 4 pg/mL; the “Caspase–3 Fold Change” value amounted to 7.2.
As to `CN[C@@H]1C[C@H]2O[C@@](C)([C@@H]1OC)n1c3ccccc3c3c4c(c5c6ccccc6n2c5c31)C(=O)NC4` [Staurosporine, reference compound], in the data set with caspase-3, the “Caspase–3 Conc” value came out at 503.00 ± 4 pg/mL and the “Caspase–3 Fold Change” value is reported as 8.0.
